In patent US20250296953A1, “3,4-THIAZOLO-STEROIDS AND METHODS OF MAKING AND USING THE SAME” (Arkansas State University - Jonesboro, priority 2018, published 2025):
Read-outs that look alike come from different tables or passages of the source.

What was measured:
HCT-15 (Colon Cancer) = experiment: NCI 60 one dose screen; format: cell-based, human
SF-539 = experiment: NCI 60 one dose screen; format: cell-based, human; details: one dose; CNS Cancer; SF-539
[1] = system: 60 different human tumor cell lines; details: five dose
SK-MEL-28 = experiment: Melanoma cytotoxicity assay (resazurin); format: cell-based; details: SK-MEL-28 melanoma cells, 24 hours with compound, resazurin; concentration not given
Summary of the method: (§1)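 About 4000 cells per well were seeded and held 24 h at 37° C, 5% CO2, then exposed to compounds in triplicate for 24 h. Resazurin was added for 6 h and fluorescence read at 544/590 nm; IC50 came from sigmoidal fits of viability versus concentration.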

SK-MEL-25 = experiment: Melanoma cytotoxicity assay (resazurin); format: cell-based; details: SK-MEL-25 melanoma cells, 24 hours with compound, resazurin; concentration not given
Summary of the method: as §1

gliosarcoma (SF-539) = experiment: NCI 60 five dose screen; details: for GI50: SF-539
SR = experiment: NCI 60 five dose screen; details: for GI50 / CC50: Homo sapiens, SR; for CC50: read-out: LC50
SF-295 = experiment: NCI 60 one dose screen; format: cell-based, human; details: one dose; CNS Cancer; SF-295
[2] = A549/ATCC (Non-small Cell Lung Cancer)
[3] = EKVX (Non-small Cell Lung Cancer)
[4] = NCI-H322M (Non-small Cell Lung Cancer)

C[C@]12CCc3sc(Nc4ccc(OC(F)(F)F)cc4)nc3C1=CC[C@@H]1[C@@H]2CC[C@]2(C)C(=O)CC[C@@H]12 [IIa.19, (1S,2R,13R,14S,18S)-2,18-dimethyl-7-[4-(trifluoromethoxy)anilino]-6-thia-8-azapentacyclo[11.7.0.02,10.05,9.014,18]icosa-5(9),7,10-trien-17-one]
Growth Percent (HCT-15 (Colon Cancer)): 38.33%
Growth Percent (SF-539): −5.40%
TGI [1, 2]: 1.61E−5
TGI ([1]; CCRF-CEM (Leukemia)): >1.00E−4
TGI ([1]; COLO 205 (Colon Cancer)): 6.76E−6
TGI [1, 3]: 1.74E−5
TGI ([1]; HCC-2998 (Colon Cancer)): 1.86E−5
TGI ([1]; HCT-15 (Colon Cancer)): 4.10E−6
TGI ([1]; HCT-116 (Colon Cancer)): 2.78E6
TGI ([1]; HL-60(TB) (Leukemia)): 4.44E−6
TGI ([1]; HOP-62 (Non-small Cell Lung Cancer)): 4.19E−6
TGI ([1]; HOP-92 (Non-small Cell Lung Cancer)): 3.44E−6
TGI ([1]; HT29 (Colon Cancer)): 1.09E−5
TGI ([1]; K-562 (Leukemia)): 6.64E−6
TGI ([1]; KM12 (Colon Cancer)): 1.50E−5
TGI ([1]; LOX IMVI (Melanoma)): 3.18E−6
TGI ([1]; MALME-3M (Melanoma)): 1.68E−5
TGI ([1]; MOLT-4 (Leukemia)): 1.19E−5
TGI ([1]; NCI-H23 (Non-small Cell Lung Cancer)): 2.17E−5
TGI ([1]; NCI-H226 (Non-small Cell Lung Cancer)): 4.41E−5
TGI [1, 4]: 4.89E−5
TGI ([1]; NCI-H460 (Non-small Cell Lung Cancer)): 1.18E−5
TGI ([1]; NCI-H522 (Non-small Cell Lung Cancer)): 4.56E−6
TGI ([1]; SF-268 (CNS Cancer)): 1.23E−5
TGI ([1]; SNB-19 (CNS Cancer)): 9.93E−6
TGI ([1]; SNB-75 (CNS Cancer)): 6.23E−6
TGI ([1]; SW-620 (Colon Cancer)): 5.00E−6
TGI ([1]; U251 (CNS Cancer)): 3.26E−6
SK-MEL-28 (% inhibition) (SK-MEL-28): 97%
SK-MEL-25 (% inhibition) (SK-MEL-25): 24%
GI50 (gliosarcoma (SF-539); Homo sapiens): 1050 nM
CC50 (gliosarcoma (SF-539); Homo sapiens, SF-539, read-out: LC50): 7070 nM
TGI (gliosarcoma (SF-539); SF-539 (CNS Cancer), five dose): 2.72E−6
GI50 (SR): 2740 nM
CC50 (SR): > 100000 nM
TGI (SR; SR (Leukemia), five dose): >1.00E−4
Growth Percent (SF-295): −2.71%

C[C@]12CCc3sc(Nc4ccc(F)cc4F)nc3C1=CC[C@@H]1[C@@H]2CC[C@]2(C)C(=O)CC[C@@H]12 [IIa.10, (1S,2R,13R,14S,18S)-7-(2,4-difluoroanilino)-2,18-dimethyl-6-thia-8-azapentacyclo[11.7.0.02,10.05,9.014,18]icosa-5(9),7,10-trien-17-one]
Growth Percent (HCT-15 (Colon Cancer)): 7.76%
Growth Percent (SF-539): 49.60%
TGI ([1]; A498 (Renal Cancer)): >1.00E−4
TGI [1, 2]: >1.00E−4
TGI ([1]; BT-549 (Breast Cancer)): >1.00E−4
TGI [1, 3]: >1.00E−4
TGI ([1]; HS 578T (Breast Cancer)): >1.00E−4
TGI ([1]; K-562 (Leukemia)): >1.00E−4
TGI ([1]; MOLT-4 (Leukemia)): >1.00E−4
TGI [1, 4]: >1.00E−4
TGI ([1]; OVCAR-4 (Ovarian Cancer)): >1.00E−4
TGI ([1]; OVCAR-5 (Ovarian Cancer)): >1.00E−4
TGI ([1]; OVCAR-8 (Ovarian Cancer)): >1.00E−4
TGI ([1]; SK-OV-3 (Ovarian Cancer)): >1.00E−4
TGI ([1]; SNB-19 (CNS Cancer)): >1.00E−4
TGI ([1]; U251 (CNS Cancer)): >1.00E−4
SK-MEL-28 (% inhibition) (SK-MEL-28): 14%
SK-MEL-25 (% inhibition) (SK-MEL-25): 34%
GI50 (gliosarcoma (SF-539); Homo sapiens): 1630 nM
GI50 (SR): 2900 nM
CC50 (SR): > 100000 nM
Growth Percent (SF-295): 50.99%
